Results as given in ChEMBL document CHEMBL4342442, “Usnic Acid Enaminone-Coupled 1,2,3-Triazoles as Antibacterial and Antitubercular Agents” (J Nat Prod, 2020).
Active and inactive are the calls of the source. No cut-off for these calls is given here.

Experiments:
[1] = tested on: Staphylococcus epidermidis; assay: Antibacterial activity against Staphylococcus epidermidis assessed as diameter of zone of inhibition at 200 ug/ml after 24 hrs by agar well diffusion method; assay type: functional
[2] = Cytotoxicity against HEK cells assessed as reduction in cell viability after 24 hrs by MTT assay; assay type: cell-based, Homo sapiens
CHO-K1 = assay: Cytotoxicity against CHOK1 cells assessed as reduction in cell viability after 24 hrs by MTT assay; assay type: cell-based; conditions: Cricetulus griseus, CHO-K1, 24 h
Pseudomonas aeruginosa [3] = assay: Antibacterial activity against Pseudomonas aeruginosa MTCC 741 assessed as diameter of zone of inhibition at 200 ug/ml after 24 hrs by agar well diffusion method; assay type: functional
Staphylococcus aureus [4] = assay: Antibacterial activity against Staphylococcus aureus MTCC 96 assessed as diameter of zone of inhibition at 200 ug/ml after 24 hrs by agar well diffusion method; assay type: functional
Escherichia coli [5] = assay: Antibacterial activity against Escherichia coli MTCC 443 assessed as reduction in microbial growth after 24 hrs by CLSI based microdilution method; assay type: functional; conditions: MTCC 443, 24 h
Escherichia coli [6] = assay: Antibacterial activity against Escherichia coli MTCC 443 assessed as diameter of zone of inhibition at 200 ug/ml after 24 hrs by agar well diffusion method; assay type: functional
Pseudomonas aeruginosa [7] = assay: Antibacterial activity against Pseudomonas aeruginosa MTCC 741 assessed as reduction in microbial growth after 24 hrs by CLSI based microdilution method; assay type: functional; conditions: MTCC 741, 24 h
[8] = tested on: Mycobacterium tuberculosis; assay: Antitubercular activity against Mycobacterium tuberculosis H37Rv assessed as reduction in microbial growth after 7 days by alamar blue assay; assay type: functional; conditions: 168 h
Klebsiella pneumoniae [9] = assay: Antibacterial activity against Klebsiella pneumoniae MTCC 618 assessed as reduction in microbial growth after 24 hrs by CLSI based microdilution method; assay type: functional; conditions: MTCC 618, 24 h
Bacillus subtilis [10] = assay: Antibacterial activity against Bacillus subtilis MTCC 441 assessed as reduction in microbial growth after 24 hrs by CLSI based microdilution method; assay type: functional; conditions: MTCC 441, 24 h
Klebsiella pneumoniae [11] = assay: Antibacterial activity against Klebsiella pneumoniae MTCC 618 assessed as diameter of zone of inhibition at 200 ug/ml after 24 hrs by agar well diffusion method; assay type: functional
[12] = tested on: Staphylococcus epidermidis; assay: Antibacterial activity against Staphylococcus epidermidis assessed as reduction in microbial growth after 24 hrs by CLSI based microdilution method; assay type: functional
Staphylococcus aureus [13] = assay: Antibacterial activity against Staphylococcus aureus MTCC 96 assessed as reduction in microbial growth after 24 hrs by CLSI based microdilution method; assay type: functional; conditions: MTCC 96, 24 h
Bacillus subtilis [14] = assay: Antibacterial activity against Bacillus subtilis MTCC 441 assessed as diameter of zone of inhibition at 200 ug/ml after 24 hrs by agar well diffusion method; assay type: functional; conditions: MTCC 441, 24 h, read-out: DIZ
[15] = tested on: Mycobacterium tuberculosis; assay: Antitubercular activity against Mycobacterium tuberculosis H37Rv assessed as log reduction in bacterial population at 10 ug/ml under starvation condition after 7 days by MPN assay; assay type: functional
[16] = Homo sapiens, HEK293, 24 h, read-out: IC50

Compound | diameter of the inhibition zone (DIZ) [1] | IC50 [2] | IC50 (CHO-K1) [µM] | diameter of the inhibition zone (DIZ) (Pseudomonas aeruginosa [3]) | diameter of the inhibition zone (DIZ) (Staphylococcus aureus [4]) | MIC (Escherichia coli [5]) [µM] | diameter of the inhibition zone (DIZ) (Escherichia coli [6]) | MIC (Pseudomonas aeruginosa [7]) [µM] | MIC [8] [µM] | MIC (Klebsiella pneumoniae [9]) [µM] | MIC (Bacillus subtilis [10]) [µM] | diameter of the inhibition zone (DIZ) (Klebsiella pneumoniae [11]) | MIC [12] [µM] | MIC (Staphylococcus aureus [13]) [µM] | zone of inhibition at 200 µg/mL (Bacillus subtilis [14]) [mm] | IC50 [2, 16] [µM] | FC [15]
CC(=O)c1c(O)c(C)c(O)c2c1OC1=CC(=O)/C(=C(/C)NCc3cn(CC(=O)c4c(F)c(F)c(F)c(F)c4F)nn3)C(=O)C12C (stereo unspecified) | inactive | Non-Toxic | 67.6 | inactive | inactive | > 350 | inactive | > 350 | 39.5 | > 350 | 158 | inactive | > 350 | > 350 | 12 | – | –
CC(=O)c1c(O)c(C)c(O)c2c1OC1=CC(=O)/C(=C(/C)NCc3cn(CCN4C(=O)c5ccccc5S4(=O)=O)nn3)C(=O)C12C (stereo unspecified) | – | – | 12.1 | – | – | – | – | – | 2.5 | – | – | – | – | – | – | 91.8 | 2.8
CC(=O)c1c(O)c(C)c(O)c2c1OC1=CC(=O)/C(=C(/C)NCc3cn(CC(=O)c4ccc5ccccc5c4)nn3)C(=O)C12C (stereo unspecified) | inactive | Non-Toxic | 67.4 | inactive | inactive | > 350 | inactive | > 350 | 5.3 | > 350 | 169 | inactive | > 350 | > 350 | 11 | – | 2.1
CC(=O)c1c(O)c(C)c(O)c2c1OC1=CC(=O)/C(=C(/C)NCc3cn(CC(=O)N4CCOCC4)nn3)C(=O)C12C (stereo unspecified) | inactive | – | 23.3 | inactive | inactive | > 350 | inactive | > 350 | 22.3 | > 350 | 90.7 | inactive | > 350 | > 350 | 13 | 53.4 | –
CC(=O)c1c(O)c(C)c(O)c2c1OC1=CC(=O)/C(=C(/C)NCc3cn(CC(=O)c4ccc(F)c(F)c4)nn3)C(=O)C12C (stereo unspecified) | inactive | – | 53.4 | inactive | inactive | > 350 | inactive | > 350 | 5.4 | > 350 | 173 | inactive | > 350 | > 350 | 12 | 52 | 2.5
